Measured values as given in ChEMBL document CHEMBL3272054, “Beta-adrenoceptor studies. 2. Effects of alkyl substitution on beta-adrenoceptor blocking, antiarrhythmic, and local anesthetic activities of 1,1'-(o-phenylenedioxy)bis(3-isopropylamino-2-propanol)” (J Med Chem, 1977).
The source made the active and inactive calls. The rule behind the calls is not given here.

Assays:
[1] = target: Beta-2 adrenergic receptor (Cavia porcellus, UniProt Q8K4Z4); test: Antagonist activity at beta-2 adrenergic receptor in guinea pig tracheal strip assessed as inhibition of isoprenaline-induced effect; details: read-out: pA2 (converted)
[2] = target: Beta-1 adrenergic receptor (Cavia porcellus, UniProt H0W3H1); test: Antagonist activity at […] adrenergic receptor in guinea pig right atrium assessed as inhibition of isoprenaline-induced effect; set-up: species or system Cardiac atrium
Right cardiac atrium [3] = test: Antiarrhythmic activity in guinea pig right atrium assessed as inhibition of ouabain-induced arrhythmia; assay type: functional, Cavia porcellus
Right cardiac atrium [4] = test: Negative chronotropic activity in guinea pig right atrium assessed as atrial rate at MEC after 30 mins; assay type: functional, tissue-based; details: Cavia porcellus
Right cardiac atrium [5] = test: Negative inotropic activity in guinea pig right atrium assessed as contractile force at MEC after 30 mins; assay type: functional, tissue-based; details: Cavia porcellus
[6] = Local anesthetic activity in desheathed frog sciatic nerve; assay type: functional, tissue-based, Anura
[7] = 1-octanol-phosphate buffer apparent partition coefficient, log P of the compound at pH 7.4; assay type: physicochemical
[8] = Apparent dissociation constant, pKa of the compound; assay type: physicochemical

Sequence of Beta-1 adrenergic receptor (H0W3H1 1-470): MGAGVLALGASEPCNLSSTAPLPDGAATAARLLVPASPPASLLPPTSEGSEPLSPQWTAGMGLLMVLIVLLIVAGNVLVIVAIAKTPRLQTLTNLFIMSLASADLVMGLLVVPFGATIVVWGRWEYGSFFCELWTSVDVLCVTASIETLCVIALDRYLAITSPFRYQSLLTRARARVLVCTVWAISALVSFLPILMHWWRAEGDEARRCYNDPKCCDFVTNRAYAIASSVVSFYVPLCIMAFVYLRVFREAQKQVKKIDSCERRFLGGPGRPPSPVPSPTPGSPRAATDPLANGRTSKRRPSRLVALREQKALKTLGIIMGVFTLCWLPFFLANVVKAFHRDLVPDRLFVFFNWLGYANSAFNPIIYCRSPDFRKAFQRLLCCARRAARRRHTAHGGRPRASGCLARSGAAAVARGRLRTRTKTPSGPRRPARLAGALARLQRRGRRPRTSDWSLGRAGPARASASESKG
Sequence of Beta-2 adrenergic receptor (Q8K4Z4 whole entry): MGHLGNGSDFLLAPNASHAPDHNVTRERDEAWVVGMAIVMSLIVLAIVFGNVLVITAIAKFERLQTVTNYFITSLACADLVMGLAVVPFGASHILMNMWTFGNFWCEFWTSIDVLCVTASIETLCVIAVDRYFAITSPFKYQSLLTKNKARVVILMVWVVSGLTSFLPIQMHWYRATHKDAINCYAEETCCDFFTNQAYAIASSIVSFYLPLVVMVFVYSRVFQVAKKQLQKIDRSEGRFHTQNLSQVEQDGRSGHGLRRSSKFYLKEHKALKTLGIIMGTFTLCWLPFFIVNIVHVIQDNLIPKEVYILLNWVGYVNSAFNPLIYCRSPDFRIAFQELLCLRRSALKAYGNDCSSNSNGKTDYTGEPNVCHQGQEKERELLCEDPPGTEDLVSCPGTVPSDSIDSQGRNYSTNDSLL

Row | Kb [1] [µM] | pA2 [2] | pEC50 [6] | logD [7] | pKa [8] | SMILES | -logMIC (Right cardiac atrium [3]) | Activity (Right cardiac atrium [4]) | Activity (Right cardiac atrium [5])
1 | 0.158 | 5.45 | 2.2 | -0.81 | 9.18 | CC(C)NCC(O)COc1cc2ccccc2cc1OCC(O)CNC(C)C.Cl (stereo not drawn) | 5.3 | Active | Active
2 |  |  |  |  |  | CC(C)NCC(O)COc1cccc2ccccc12 (stereo not drawn) |  | Active | Active
3 |  |  | 2.07 | -0.833 | 9.3 | CC(C)NCC(O)COc1ccc(C(C)C)cc1OCC(O)CNC(C)C.Cl (stereo not drawn) | 4.7 | Active | Active
4 |  |  | 2 | -0.747 | 9.24 | CC(C)NCC(O)COc1cccc(C(C)C)c1OCC(O)CNC(C)C.Cl (stereo not drawn) | 5 | Active | Active
5 |  |  | 1.8 | -1.17 | 9.23 | Cc1cccc(OCC(O)CNC(C)C)c1OCC(O)CNC(C)C.Cl (stereo not drawn) | 4.7 | Active | Active
6 | 0.129 | 5.83 | 2.02 | -0.726 | 9.17 | CC(C)NCC(O)COc1cc2c(cc1OCC(O)CNC(C)C)CCCC2 (stereo not drawn) | 5 | Active | Active
7 |  |  | 1.29 | -1.19 | 9.22 | CC(C)NCC(O)COc1ccccc1OCC(O)CNC(C)C (stereo not drawn) | 3.7 | Active | Active
8 |  |  | 1.69 | -1.16 | 9.24 | Cc1ccc(OCC(O)CNC(C)C)c(OCC(O)CNC(C)C)c1.Cl (stereo not drawn) | 4.3 | Active | Active
